This assay deals with T1, MAGL (recombinant wild-type) (Homo sapiens, UniProt Q99685).
T1 sequence (Q99685 1-303): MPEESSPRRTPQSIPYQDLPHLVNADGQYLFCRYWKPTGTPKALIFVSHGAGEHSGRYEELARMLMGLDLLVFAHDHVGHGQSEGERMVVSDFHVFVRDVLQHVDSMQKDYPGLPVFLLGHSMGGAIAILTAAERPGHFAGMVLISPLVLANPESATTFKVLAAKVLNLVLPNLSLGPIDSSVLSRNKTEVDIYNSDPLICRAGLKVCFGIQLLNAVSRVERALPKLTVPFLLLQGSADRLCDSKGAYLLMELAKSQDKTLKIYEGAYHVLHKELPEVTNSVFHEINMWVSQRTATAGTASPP
The assay can be described thus: MAGL inhibition, 4-NPA assay (hydrolysis of 4-nitrophenylacetate, absorbance at 405 nm). In kind it is biochemical. The conditions noted are these: 4-NPA assay (footnote [a]: values not marked [b]). As to the method:
Compounds were profiled for MAGL inhibitory activity by measuring the enzymatic activity of MAGL by following the hydrolysis of 4-nitrophenylacetate resulting in 4-nitrophenol, which absorbs at 405-412 nm (G. G. Muccioli, G. Labar, D. M. Lambert, Chem. Bio. Chem. 2008, 9, 2704-2710). This assay is hereinafter abbreviated “4-NPA assay”.
The assay was carried out in 384 well assay plates (black with clear bottom, non-binding surface treated, Corning Ref. 3655) in a total volume of 40 μL. Compound dilutions were made in 100% DMSO (VWR Chemicals 23500.297) in a polypropylene plate in 3-fold dilution steps to give a final concentration range in the assay from 25 μM to 1.7 nM. 1 μL compound dilutions (100% DMSO) were added to 19 μL MAGL (recombinant wild-type) in assay buffer (50 mM TRIS (GIBCO, 15567-027), 1 mM EDTA (Fluka, 03690-100 mL)). The plate was shaked for 1 min at 2000 rpm (Variomag Teleshake) and then incubated for 15 min at RT. To start the reaction, 20 μL 4-Nitrophenlyacetate (Sigma N-8130) in assay buffer with 6% EtOH was added. The final concentrations in the assay were 1 nM MAGL and 300 μM 4-Nitrophenylacetate. After shaking (1 min, 2000 rpm) and 5 min incubation at RT, the absorbance at 405 nm was measured for a first time (Molecular Devices, SpectraMax Paradigm). A second measurement was then done after incubation for 80 min at RT. From the two measurements, the slope was calculated by subtracting the first from the second measurement.
Consider `O=C1CO[C@H]2CCN(C(=O)N3CCC(C(c4ccc(F)cc4)c4ccc(F)cc4)CC3)C[C@H]2N1` (single isomer, unassigned) [Example 21, (+)-or (−)-cis-6-(4-(bis(4-Fluorophenyl)methyl)piperidine-1-carbonyl)hexahydro-2H-pyrido[4,3-b][1,4]oxazin-3(4H)-one], for which the IC50 amounted to 1 nM.
On to `O=C1CO[C@H]2CCN(C(=O)N3CCC(c4cn(CC5COC5)c5ccc(Cl)cc45)CC3)C[C@H]2N1` (single isomer, unassigned) [Example 23, (+)-or (−)-cis-6-(4-(5-Chloro-1-(oxetan-3-ylmethyl)-1H-indol-3-yl)piperidine-1-carbonyl)hexahydro-2H-pyrido[4,3-b][1,4]oxazin-3(4H)-one], for which the IC50 was determined as 3 nM.
Regarding `CC(C)(C)[Si](C)(C)OCCn1cc(C2CCN(C(=O)N3CC[C@@H]4OCC(=O)N[C@@H]4C3)CC2)c2cc(Cl)ccc21` (single isomer, unassigned) [Example 24, (+)-or (−)-cis-6-(4-(1-(2-((tert-Butyldimethylsilyl)oxy)ethyl)-5-chloro-1H-indol-3-yl)piperidine-1-carbonyl)hexahydro-2H-pyrido[4,3-b][1,4]oxazin-3(4H)-one], the IC50 turned out to be 0.7 nM.
The result for `O=C1CO[C@H]2CCN(C(=O)N3CCC(c4cn(CCO)c5ccc(Cl)cc45)CC3)C[C@H]2N1` (single isomer, unassigned) [Example 25, (+)- or (−)-cis-6-(4-(5-Chloro-1-(2-hydroxyethyl)-1H-indol-3-yl)piperidine-1-carbonyl)hexahydro-2H-pyrido[4,3-b][1,4]oxazin-3(4H)-one] reads 2 nM.
The result for `O=C1CO[C@H]2CCN(C(=O)N3CCC([C@H](CCO)c4ccc(F)cc4)CC3)C[C@H]2N1` (single isomer, unassigned) [Example 32, (−)-(4aR,8aS)--6-(4-((S or R)-1-(4-Fluorophenyl)-3-hydroxypropyl)piperidine-1-carbonyl)hexahydro-2H-pyrido[4,3-b][1,4]oxazin-3(4H)-one] reads 203 nM.
The value for `C[C@H](Oc1ccc(F)cc1Cl)C1CCN(C(=O)N2CC[C@@H]3OCC(=O)N[C@@H]3C2)CC1` (single isomer, unassigned) [Example 33, (+) or (−)-cis-6-(4-((S or R)-1-(2-Chloro-4-fluorophenoxy)ethyl)piperidine-1-carbonyl)hexahydro-2H-pyrido[4,3-b][1,4]oxazin-3(4H)-one] was 51 nM; that for `C[C@@H](Oc1ccc(F)cc1Cl)C1CCN(C(=O)N2CC[C@@H]3OCC(=O)N[C@@H]3C2)CC1` (single isomer, unassigned) [Example 34, (+) or (−)-cis-6-(4-((R or S)-1-(2-Chloro-4-fluorophenoxy)ethyl)piperidine-1-carbonyl)hexahydro-2H-pyrido[4,3-b][1,4]oxazin-3(4H)-one] was 1 nM.
As to `COc1cncc(C2CCN(C(=O)N3CC[C@@H]4OCC(=O)N[C@@H]4C3)CC2)c1` (single isomer, unassigned) [Example 35, (+) or (−)-cis-6-(4-(5-Methoxypyridin-3-yl)piperidine-1-carbonyl)hexahydro-2H-pyrido[4,3-b][1,4]oxazin-3(4H)-one], the IC50 was found to be 2400 nM.
In the case of `O=C1CO[C@@H]2CCN(C(=O)N3CCC(C(c4ccc(F)cc4)c4ccc(F)cc4)CC3)C[C@@H]2N1` (single isomer, unassigned) [Example 36, (+) or (−)-cis-6-(4-(Bis(4-fluorophenyl)methyl)piperidine-1-carbonyl)hexahydro-2H-pyrido[4,3-b][1,4]oxazin-3(4H)-one], the IC50 is 85 nM.
For `O=C1CO[C@H]2CCN(C(=O)N3CCC(C(F)(F)c4ccc(Cl)cc4)CC3)C[C@H]2N1` (single isomer, unassigned) [Example 37, (+) or (−)-cis-6-(4-((4-Chlorophenyl)difluoromethyl)piperidine-1-carbonyl)hexahydro-2H-pyrido[4,3-b][1,4]oxazin-3(4H)-one], the IC50 was 34 nM.
The value for `O=C1CO[C@H]2CCN(C(=O)N3CCC(c4ccc(OC(F)(F)F)cn4)CC3)C[C@H]2N1` (single isomer, unassigned) [Example 38, (+) or (−)-cis-6-(4-(5-(Trifluoromethoxy)pyridin-2-yl)piperidine-1-carbonyl)hexahydro-2H-pyrido[4,3-b][1,4]oxazin-3(4H)-one] was 644 nM.
The result for `O=C1CO[C@H]2CCN(C(=O)N3CCC(C(F)(F)c4ccc(F)cc4Cl)CC3)C[C@H]2N1` (single isomer, unassigned) [Example 39, (+) or (−)-cis-6-(4-((2-Chloro-4-fluorophenyl)difluoromethyl)piperidine-1-carbonyl)hexahydro-2H-pyrido[4,3-b][1,4]oxazin-3(4H)-one] reads 21 nM; that for `CCc1cncc(C2CCN(C(=O)N3CC[C@@H]4OCC(=O)N[C@@H]4C3)CC2)c1` (single isomer, unassigned) [Example 40, (+) or (−)-cis-6-(4-(5-Ethylpyridin-3-yl)piperidine-1-carbonyl)hexahydro-2H-pyrido[4,3-b][1,4]oxazin-3(4H)-one], 683 nM.
Take `CC(F)(F)c1ccc(C2CCN(C(=O)N3CC[C@@H]4OCC(=O)N[C@@H]4C3)CC2)nc1` (single isomer, unassigned) [Example 41, (+) or (−)-cis-6-(4-(5-(1,1-Difluoroethyl)pyridin-2-yl)piperidine-1-carbonyl)hexahydro-2H-pyrido[4,3-b][1,4]oxazin-3(4H)-one]: the IC50 was 485 nM.
The value for `Cn1nc(C2CCN(C(=O)N3CC[C@@H]4OCC(=O)N[C@@H]4C3)CC2)c2ccc(Cl)cc21` (single isomer, unassigned) [Example 42, (+) or (−)-cis-6-(4-(6-Chloro-1-methyl-1H-indazol-3-yl)piperidine-1-carbonyl)hexahydro-2H-pyrido[4,3-b][1,4]oxazin-3(4H)-one] was 103 nM; that for `Cc1cccc(C(c2ccccc2)C2CCN(C(=O)N3CC[C@@H]4OCC(=O)N[C@@H]4C3)CC2)c1` (single isomer, unassigned) [Example 80, (4aR,8aS)-6-[4-[(S or R)-m-Tolyl(phenyl)methyl]piperidine-1-carbonyl]-4,4a,5,7,8,8a-hexahydropyrido[4,3-b][1,4]oxazin-3-one] was 0.4 nM; that for `O=C1CO[C@H]2CCN(C(=O)N3CCC(C(CCO)c4ccc(F)cc4)CC3)C[C@H]2N1` (single isomer, unassigned; (+)) [Example 31, (+)-(4aR,8aS)-6-(4-((R or S)-1-(4-Fluorophenyl)-3-hydroxypropyl)piperidine-1-carbonyl)hexahydro-2H-pyrido[4,3-b][1,4]oxazin-3(4H)-one] was 17 nM.
The value for `O=C1CO[C@@H]2CCN(C(=O)N3CCN(C(c4ccc(F)cc4)c4ccc(F)cc4)CC3)C[C@@H]2N1` (stereo in doubt) [Example 13, (−)-(cis)-6-(4-(bis(4-Fluorophenyl)methyl)piperazine-1-carbonyl)hexahydro-2H-pyrido[4,3-b][1,4]oxazin-3(4H)-one] was 88 nM.

A word on the IC50: it is the concentration that inhibits the measured activity by half.

Source of the values: US20230117324A1, “OXAZINE MONOACYLGLYCEROL LIPASE (MAGL) INHIBITORS” (Hoffmann-La Roche Inc., priority 2018, published 2023).
